Test results from US11884673B2, “Modulators of ion channel receptors and uses thereof” (BIONOMICS LIMITED, priority 2018, dated 2024).

Each compound was assayed against T1, hNav1.7 (Homo sapiens, UniProt Q15858) (assay: hNav1.7 inactivated state (SIS) automated patch clamp electrophysiology (Patchliner, whole-cell)). Conditions: Assay Conc. 10 uM; inactivated state protocol; hNav1.7 stably expressed in human embryonic kidney cells; read-out: hNav1.7 SIS (% inh).
T1 construct: expressed in transfected cells
T1 sequence (Q15858 whole entry): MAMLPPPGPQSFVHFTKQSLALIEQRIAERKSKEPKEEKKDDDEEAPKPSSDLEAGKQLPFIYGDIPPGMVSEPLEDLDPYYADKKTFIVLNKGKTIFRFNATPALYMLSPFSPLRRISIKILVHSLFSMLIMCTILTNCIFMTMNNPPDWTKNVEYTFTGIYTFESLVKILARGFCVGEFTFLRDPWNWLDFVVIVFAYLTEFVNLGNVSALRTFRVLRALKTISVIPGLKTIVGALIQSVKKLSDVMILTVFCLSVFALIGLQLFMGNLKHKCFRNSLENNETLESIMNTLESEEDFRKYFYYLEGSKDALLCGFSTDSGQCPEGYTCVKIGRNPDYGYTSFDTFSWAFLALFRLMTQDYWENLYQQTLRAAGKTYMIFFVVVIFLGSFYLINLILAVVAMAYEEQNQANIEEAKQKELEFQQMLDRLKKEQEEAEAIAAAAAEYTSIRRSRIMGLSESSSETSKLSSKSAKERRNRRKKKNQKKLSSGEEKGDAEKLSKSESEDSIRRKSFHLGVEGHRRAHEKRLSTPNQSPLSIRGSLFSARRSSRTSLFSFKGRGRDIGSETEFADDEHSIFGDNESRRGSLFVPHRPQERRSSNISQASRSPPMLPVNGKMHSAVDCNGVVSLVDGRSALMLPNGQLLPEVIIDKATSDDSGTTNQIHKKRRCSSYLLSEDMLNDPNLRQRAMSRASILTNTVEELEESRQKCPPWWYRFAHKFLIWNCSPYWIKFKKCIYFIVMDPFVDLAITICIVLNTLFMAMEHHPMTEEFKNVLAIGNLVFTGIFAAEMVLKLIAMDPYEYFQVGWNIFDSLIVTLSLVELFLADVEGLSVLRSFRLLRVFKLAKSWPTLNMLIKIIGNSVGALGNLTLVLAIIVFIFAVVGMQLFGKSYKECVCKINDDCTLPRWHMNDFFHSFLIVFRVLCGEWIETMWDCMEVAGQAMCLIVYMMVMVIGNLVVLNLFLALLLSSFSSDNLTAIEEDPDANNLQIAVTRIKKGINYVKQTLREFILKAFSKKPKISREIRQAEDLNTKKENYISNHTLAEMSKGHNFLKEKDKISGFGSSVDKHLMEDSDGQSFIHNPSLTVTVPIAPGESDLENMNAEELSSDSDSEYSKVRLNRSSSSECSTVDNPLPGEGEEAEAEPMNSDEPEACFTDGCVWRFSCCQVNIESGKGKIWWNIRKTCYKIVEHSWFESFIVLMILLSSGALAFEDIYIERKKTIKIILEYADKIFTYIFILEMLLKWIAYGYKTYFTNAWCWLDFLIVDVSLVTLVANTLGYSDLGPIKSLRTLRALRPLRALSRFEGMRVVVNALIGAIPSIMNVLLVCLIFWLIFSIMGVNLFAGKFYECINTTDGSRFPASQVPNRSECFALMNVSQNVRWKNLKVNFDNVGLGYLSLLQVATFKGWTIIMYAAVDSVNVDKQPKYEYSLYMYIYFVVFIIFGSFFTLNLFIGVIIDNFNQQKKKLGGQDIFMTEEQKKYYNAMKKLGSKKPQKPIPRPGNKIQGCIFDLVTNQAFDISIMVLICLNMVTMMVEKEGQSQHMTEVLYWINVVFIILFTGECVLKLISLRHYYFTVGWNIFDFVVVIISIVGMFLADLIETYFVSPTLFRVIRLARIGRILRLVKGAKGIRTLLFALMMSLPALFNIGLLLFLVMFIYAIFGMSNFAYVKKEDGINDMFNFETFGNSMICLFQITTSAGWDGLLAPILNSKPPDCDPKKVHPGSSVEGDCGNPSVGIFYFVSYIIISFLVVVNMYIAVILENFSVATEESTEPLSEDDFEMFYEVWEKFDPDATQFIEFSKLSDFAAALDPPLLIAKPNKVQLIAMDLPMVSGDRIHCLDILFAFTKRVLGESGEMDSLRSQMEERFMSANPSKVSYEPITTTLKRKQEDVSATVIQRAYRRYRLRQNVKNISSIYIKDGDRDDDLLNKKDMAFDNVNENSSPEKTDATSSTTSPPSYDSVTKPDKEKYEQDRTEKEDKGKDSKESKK
Assay type: cell-based
Procedure: hNav1.7, hNav1.2, hNav1.3, hNav1.4, hNav1.5, hNav1.6 were stably expressed in human embryonic kidney cells and kept under constant antibiotic selection. For in vitro assays, cells were maintained in appropriate growth medium at 37° C. and 5% CO2 in a humidified incubator.
Nav1.x expressing cells plated in T-25 flasks for 2-3 days prior to use and grown to 70-85% confluence were briefly trypsinized to obtain a single cell suspension of ˜2-3×10^6 cells/ml. All electrophysiological recordings were performed at ambient temperature (21-23° C.) using automated patch clamp (Patchliner, Nanion Technologies GmbH) in the whole-cell configuration using the following solutions: Internal solution contained (in mM): CsCl (50), NaCl (10), CsF (60), EGTA (20), HEPES (10), pH 7.2 KOH, 285 mOsmol·Kg^−1. External (bath) solution contained (in mM): NaCl (140), KCl (4), MgCl2 (1), CaCl2) (2) D-Glucose monohydrate (5), HEPES (10), pH 7.4 NaOH, 298 mOsmol·kg^−1.
The following voltage protocols were used to assess different Nav1.x channel states:
For each Nav1.x channel, a steady state inactivation curve was obtained in order to calculate the voltage resulting in 50% channel inactivation (V0.5inact). A 2 pulse protocol was then employed in which cells held at a voltage corresponding to 20 mV more negative to V0.5 inact were depolarised to −10 mV for 20 ms before returning to the previous holding voltage. This test pulse constituted P1 and represents 100% available (non-inactivated) Nav1.x channels. The same cell was then depolarised for 8 s to a voltage corresponding to 7 mV more positive than V0.5inact in order to cause channel inactivation. Following a brief (2 ms) hyperpolarising voltage step to −120 mV (to reset the activation gate), cells were again subjected to a depolarising test pulse (P2) to −10 mV for 20 ms before returning to the holding potential. Each sequence was repeated 6× at 30 s intervals. Using this protocol, control P2 current amplitudes (representing the % channels available following 8 s inactivation) was ˜50% of control P1 current amplitude. 6 repetitions of this recording sequence were made in the control bath solution and then again 2 minutes after compound addition and thereafter at increasing compound concentrations. % inhibition was calculated by (1−(P2drug at repetition 6/P2control at repetition 6))*100. Data were either presented as % block by a single concentration of drug or an estimated eIC50 determined from 2-3 drug concentrations which was determined by fitting data with a sigmoidal dose response curve (variable slope) using GraphPad Prism software (Version 6.0).
All compounds were dissolved in DMSO to 20 mM initially. Subsequent dilutions in DMSO were made to achieve 200× final bath concentrations. DMSO compound stocks were finally diluted 1/200 in bath solution just prior to assay resulting in a final DMSO concentration of 0.5% which was not found to affect control current amplitude.
An inhibition at 10 µM of 48% was found for `O=C(NCc1cccc(OCc2ccccc2F)c1)c1cccc2ncnn12` [Number 64] in this work. An inhibition at 10 µM of 42% was found for `O=C(NCc1cccc(OCc2ccccc2F)c1)c1cccn2nnnc12` [Number 79] in this work. An inhibition at 10 µM of 36% was found for `CC(C)(Oc1cccc(CNC(=O)c2cccn3cnnc23)c1)c1ccccc1F` [Number 51] in this work. An inhibition at 10 µM of 70% was found for `O=C(NCc1cccc(OCc2ccccc2F)c1)c1cccn2ncnc12` [Number 77] in this work. An inhibition at 10 µM of 34% was found for `O=C(NCc1cccc(OCc2ccccc2F)c1)c1cn2ccncc2n1` [Number 67] in this work. An inhibition at 10 µM of 44% was found for `O=C(Cc1cn2ccccc2n1)NCc1cccc(OCc2ccccc2F)c1` [Number 76] in this work. An inhibition at 10 µM of 53% was found for `Cn1cccc(C(=O)NCc2cccc(OCc3ccccc3F)c2)c1=O` [Number 57] in this work. An inhibition at 10 µM of 30% was found for `Cn1ccc(C(=O)NCc2cccc(OCc3ccccc3F)c2)cc1=O` [Number 66] in this work. An inhibition at 10 µM of 66% was found for `O=C(NCc1cccc(OCc2ccccc2F)c1)c1ccn2cnnc2c1` [Number 70] in this work. An inhibition at 10 µM of 59% was found for `Cc1cnc2cc(C(=O)NCc3cccc(OCc4ccccc4F)c3)ccn12` [Number 83] in this work. An inhibition at 10 µM of 55% was found for `O=C(NCc1cc(OCc2ccccc2F)ccc1F)c1ccc2cncn2c1` [Number 85] in this work. An inhibition at 10 µM of 42% was found for `O=C(NCc1cc(OCc2ccccc2F)ccc1F)c1cn2cccnc2n1` [Number 59] in this work. An inhibition at 10 µM of 49% was found for `Cn1ccc(C(=O)NCc2cc(OCc3ccccc3F)ccc2F)cc1=O` [Number 55] in this work. An inhibition at 10 µM of 100% was found for `O=C(NCc1cc(OCc2ccccc2F)ccc1F)c1nccn2ccnc12` [Number 48] in this work. An inhibition at 10 µM of 45% was found for `O=C(NCc1cccc(OCc2ccccc2F)c1)c1ccc2cncn2c1` [Number 84] in this work. An inhibition at 10 µM of 99% was found for `O=C(NCc1cc(OCc2ccccc2F)ccc1F)c1cccn2ccnc12` [Number 89] in this work. An inhibition at 10 µM of 53% was found for `O=C(NCc1cc(OCc2ccccc2F)ccc1F)c1cn2ncccc2n1` [Number 68] in this work. An inhibition at 10 µM of 92% was found for `O=C(NCc1cccc(OCc2ccccc2F)c1)c1cc2cccn2cn1` [Number 69] in this work. An inhibition at 10 µM of 45% was found for `CC(C)(NC(=O)c1ccn2ccnc2c1)c1cccc(OCc2ccccc2F)c1` [Number 11] in this work. An inhibition at 10 µM of 47% was found for `O=C(NCc1cccc(OCc2ccccc2F)c1)c1cnc2ccccn12` [Number 73] in this work. An inhibition at 10 µM of 74% was found for `Cn1cc(CC(=O)NCc2cccc(OCc3ccccc3F)c2)c2ccccc21` [Number 75] in this work. An inhibition at 10 µM of 92% was found for `O=C(NCc1cccc(OCc2ccccc2F)c1)c1cccn2cncc12` [Number 86] in this work. An inhibition at 10 µM of 50% was found for `O=C(NCc1cccc(OCc2ccccc2F)c1)c1cn2ncccc2n1` [Number 62] in this work. An inhibition at 10 µM of 80% was found for `O=C(NCc1cccc(OCc2ccccc2F)c1)c1cccc2ccnn12` [Number 50] in this work. An inhibition at 10 µM of 55% was found for `COC[C@H](C)N(Cc1cccc(OCc2ccccc2F)c1)C(=O)c1cn2ccccc2n1` [Number 54] in this work. An inhibition at 10 µM of 42% was found for `O=C(NCc1cc(OCc2ccccc2F)ccc1F)c1ccn2ncnc2c1` [Number 82] in this work. An inhibition at 10 µM of 58% was found for `O=C(NCc1cc(OCc2ccccc2F)ccc1F)c1ccn2cnnc2c1` [Number 74] in this work. An inhibition at 10 µM of 38% was found for `O=C(NCc1cc(OCc2ccccc2F)ccc1F)c1cccc2nncn12` [Number 49] in this work. An inhibition at 10 µM of 100% was found for `Cc1cn2ccc(C(=O)NCc3cc(OCc4ccccc4F)ccc3F)cc2n1` [Number 72] in this work. An inhibition at 10 µM of 66% was found for `Cc1cn2ccc(C(=O)NCc3cccc(OCc4ccccc4F)c3)cc2n1` [Number 71] in this work. An inhibition at 10 µM of 66% was found for `O=C(NCc1cc(OCc2ccccc2F)ccc1F)c1cccn2cncc12` [Number 87] in this work. An inhibition at 10 µM of 74% was found for `COC[C@@H](C)N(Cc1cccc(OCc2ccccc2F)c1)C(=O)c1cn2ccccc2n1` [Number 53] in this work. An inhibition at 10 µM of 83% was found for `O=C(NCc1cc(OCc2ccccc2F)ccc1F)c1cccn2ncnc12` [Number 78] in this work. An inhibition at 10 µM of 49% was found for `O=C(NCc1cccc(OCc2ccccc2F)c1)c1cccc2cncn12` [Number 60] in this work. An inhibition at 10 µM of 42% was found for `O=C(NCc1cccc(OCc2ccccc2F)c1)c1cn2cccnc2n1` [Number 63] in this work. An inhibition at 10 µM of 49% was found for `O=C(NCc1cccc(OCc2ccccc2F)c1)c1ccc2nncn2c1` [Number 88] in this work. An inhibition at 10 µM of 83% was found for `CC(C)(Oc1cccc(CNC(=O)c2cccn3ccnc23)c1)c1ccccc1F` [Number 52] in this work. An inhibition at 10 µM of 88% was found for `O=C(NCc1cc(OCc2ccccc2F)ccc1F)c1cccn2nnnc12` [Number 81] in this work. An inhibition at 10 µM of 52% was found for `Cn1cccc(C(=O)NCc2cc(OCc3ccccc3F)ccc2F)c1=O` [Number 58] in this work. An inhibition at 10 µM of 30% was found for `O=C(NCc1cccc(OCc2ccccc2F)c1)c1ccn2ncnc2c1` [Number 80] in this work.

Same assay, conditions: estimated eIC50 from 2-3 drug concentrations; inactivated state protocol; hNav1.7 stably expressed in human embryonic kidney cells
An IC50 of 8.9 µM was found for `O=C(NCc1cccc(OCc2ccccc2F)c1)c1ccn2ccnc2c1` [Number 9] in this work. An IC50 of 0.13 µM was found for `O=C(NCc1cc(OCC2CCCCC2)ccc1F)c1cccn2cnnc12` [Number 6] in this work. An IC50 of 4.8 µM was found for `CC(C)(NC(=O)c1cccn2cnnc12)c1cccc(OCC2CCCCC2)c1` [Number 7] in this work. An IC50 of 0.51 µM was found for `CC(C)(NC(=O)c1ccn2ccnc2c1)c1cccc(OCC2CCCCC2)c1` [Number 12] in this work. An IC50 of 2.2 µM was found for `O=C(NCc1cc(OCc2ccccc2F)ccc1F)c1cn2ccccc2n1` [Number 56] in this work. An IC50 of 1.1 µM was found for `O=C(NCc1cc(OCc2ccccc2F)ccc1F)c1cccn2cnnc12` [Number 4] in this work. An IC50 of 3.3 µM was found for `O=C(NCc1cccc(OCc2ccccc2F)c1)c1cccn2cnnc12` [Number 10] in this work. An IC50 of 1.6 µM was found for `CN(Cc1cccc(OCc2ccccc2F)c1)C(=O)c1cn2ccccc2n1` [Number 61] in this work. An IC50 of 1.3 µM was found for `O=C(NCc1cc(OCc2ccccc2F)ccc1F)c1ccn2ccnc2c1` [Number 5] in this work. An IC50 of 2.7 µM was found for `O=C(NCc1cccc(OCc2ccccc2F)c1)c1cccn2ccnc12` [Number 3] in this work. An IC50 of 0.41 µM was found for `O=C(NCc1cc(OCC2CCCCC2)ccc1F)c1ccn2ccnc2c1` [Number 1] in this work. An IC50 of 0.91 µM was found for `O=C(NCc1cccc(OCC2CCCCC2)c1)c1cccn2cnnc12` [Number 8] in this work. An IC50 of 1.3 µM was found for `O=C(NCc1cccc(OCc2ccccc2F)c1)c1nccn2ccnc12` [Number 2] in this work. An IC50 of 10 µM was found for `O=C(NCc1cc(OCc2ccccc2F)ccc1F)c1cccc2ncnn12` [Number 65] in this work.
